Measurements taken from patent publication US8841483B2, “Compositions useful as inhibitors of voltage-gated sodium channels” (Vertex Pharmaceuticals Incorporated, priority 2006, dated 2014).

Target: NaV1.8 (Homo sapiens, UniProt Q9Y5Y9)
Assay: Activity against NaV 1.8 channel (Table 3), optical membrane potential / electrophysiology assays
Type: cell-based
Procedure: Compounds of the invention are useful as antagonists of voltage-gated sodium ion channels. Antagonist properties of test compounds were assessed as follows. Cells expressing the NaV of interest were placed into microtiter plates. After an incubation period, the cells were stained with fluorescent dyes sensitive to the transmembrane potential. The test compounds were added to the microtiter plate. The cells were stimulated with either a chemical or electrical means ti evoke a NaV dependent membrane potential change from unblocked channels, which was detected and measured with trans-membrane potential-sensitive dyes. Antagonists were detected as a decreased membrane potential response to the stimulus. The optical membrane potential assay utilized voltage-sensitive FRET sensors described by Gonzalez and Tsien (See, Gonzalez, J. E. and R. Y. Tsien (1995) “Voltage sensing by fluorescence resonance energy transfer in single cells” Biophys J 69(4): 1272-80, and Gonzalez, J. E. and R. Y. Tsien (1997) “Improved indicators of cell membrane potential that use fluorescence resonance energy transfer” Chem Biol 4(4): 269-77) in combination with instrumentation for measuring fluorescence changes such as the Voltage/Ion Probe Reader (VIPR®) (See, Gonzalez, J. E., K. Oades, et al. (1999) “Cell-based assays and instrumentation for screening ion-channel targets” Drug Discov Today 4(9): 431-439).
The following is an example of how NaV1.3 inhibition activity is measured using the optical membrane potential method #2. Other subtypes are performed in an analogous mode in a cell line expressing the NaV of interest.
HEK293 cells stably expressing NaV1.3 are plated into 96-well microtiter plates. After an appropriate incubation period, the cells are stained with the voltage sensitive dyes CC2-DMPE/DiSBAC2(3) as follows.
2X CC2-DMPE=20 μM CC2-DMPE: 10 mM CC2-DMPE is vortexed with an equivalent volume of 10% pluronic, followed by vortexing in required amount of HBSS containing 10 mM HEPES. Each cell plate will require 5 mL of 2X CC2-DMPE. 50 μL of 2X CC2-DMPE is to wells containing washed cells, resulting in a 10 μM final staining concentration. The cells are stained for 30 minutes in the dark at RT.
2X DISBAC2(3) with ABSC1=6 μM DISBAC2(3) and 1 mM ABSC1: The required amount of 10 mM DISBAC2(3) is added to a 50 ml conical tube and mixed with 1 μL 10% pluronic for each mL of solution to be made and vortexed together. Then HBSS/HEPES is added to make up 2X solution. Finally, the ABSC1 is added.
The 2X DiSBAC2(3) solution can be used to solvate compound plates. Note that compound plates are made at 2X drug concentration. Wash stained plate again, leaving residual volume of 50 μL. Add 50 uL/well of the 2X DiSBAC2(3) w/ABSC1. Stain for 30 minutes in the dark at RT.
The electrical stimulation instrument and methods of use are described in ION Channel Assay Methods PCT/US01/21652, herein incorporated by reference. The instrument comprises a microtiter plate handler, an optical system for exciting the coumarin dye while simultaneously recording the coumarin and oxonol emissions, a waveform generator, a current- or voltage-controlled amplifier, and a device for inserting electrodes in well. Under integrated computer control, this instrument passes user-programmed electrical stimulus protocols to cells within the wells of the microtiter plate.
Assay Protocol • 1. Insert or use electrodes into each well to be assayed. • 2. Use the current-controlled amplifier to deliver stimulation wave pulses for 3 s. Two seconds of pre-stimulus recording are performed to obtain the un-stimulated intensities. Five seconds of post-stimulation recording are performed to examine the relaxation to the resting state.
Data are analyzed and reported as normalized ratios of background-subtracted emission intensities measured in the 460 nm and 580 nm channels. Background intensities are then subtracted from each assay channel. […]

Row | Structure (SMILES) | IC50
1 | CC(C)(C)c1ccc(C(=O)Nc2cccc(S(N)(=O)=O)c2)c(Oc2ccccc2)c1 [Compound 1] | < 2 µM
2 | Cc1cc(Br)ccc1C(=O)Nc1cccc(S(N)(=O)=O)c1 [Compound 2] | > 10 µM
3 | NS(=O)(=O)c1cccc(NC(=O)c2ccc(Cl)c(Cl)c2)c1 [Compound 3] | > 10 µM
4 | NS(=O)(=O)c1cccc(NC(=O)c2ccccc2-n2cccc2)c1 [Compound 4] | > 10 µM
5 | NS(=O)(=O)c1cccc(NC(=O)c2ccc(Cc3ccccc3)cc2)c1 [Compound 5] | > 10 µM
6 | NS(=O)(=O)c1cccc(NC(=O)c2ccccc2Nc2cccc(F)c2)c1 [Compound 6] | > 10 µM
7 | NS(=O)(=O)c1cccc(NC(=O)c2ccccc2Cc2ccccc2)c1 [Compound 7] | < 2 µM
8 | NS(=O)(=O)c1cccc(NC(=O)c2ccc(C(F)(F)F)cc2)c1 [Compound 8] | > 10 µM
9 | COc1ccc(C(=O)Nc2cccc(S(N)(=O)=O)c2)cc1OC [Compound 9] | > 10 µM
10 | CC(C)c1ccc(C(=O)Nc2cccc(S(N)(=O)=O)c2)cc1 [Compound 10] | 2 to 10 µM
11 | NS(=O)(=O)c1cccc(NC(=O)c2ccccc2-c2cccnc2)c1 [Compound 11] | > 10 µM
12 | NS(=O)(=O)c1cccc(NC(=O)c2ccccc2COc2ccccc2)c1 [Compound 12] | 2 to 10 µM
13 | NS(=O)(=O)c1cccc(NC(=O)c2ccc(Br)cc2)c1 [Compound 13] | > 10 µM
14 | CNS(=O)(=O)c1cccc(NC(=O)c2ccc(C(C)(C)C)cc2)c1 [Compound 14] | 2 to 10 µM
15 | NS(=O)(=O)c1cccc(NC(=O)c2cccc(Oc3ccccc3)c2)c1 [Compound 15] | 2 to 10 µM
16 | NS(=O)(=O)c1cccc(NC(=O)c2ccccc2Oc2ccc(C(F)(F)F)cc2)c1 [Compound 16] | < 2 µM
17 | NS(=O)(=O)c1cccc(NC(=O)c2ccccc2Nc2cccc(Oc3ccccc3)c2)c1 [Compound 17] | > 10 µM
18 | NS(=O)(=O)c1cccc(NC(=O)c2cccc(C(=O)c3ccccc3)c2)c1 [Compound 18] | > 10 µM
19 | NS(=O)(=O)c1cccc(NC(=O)c2ccc(-c3ncc[nH]3)cc2)c1 [Compound 19] | > 10 µM
20 | NS(=O)(=O)c1cccc(NC(=O)c2ccccc2NC(=O)c2cccnc2)c1 [Compound 20] | > 10 µM
21 | NS(=O)(=O)c1cccc(NC(=O)c2ccccc2Oc2ccccc2Cl)c1 [Compound 21] | < 2 µM
22 | COc1ccc(C(=O)Nc2cccc(S(N)(=O)=O)c2)cc1 [Compound 22] | > 10 µM
23 | COc1ccccc1Oc1ccccc1C(=O)Nc1cccc(S(N)(=O)=O)c1 [Compound 23] | < 2 µM

Row | Structure (SMILES) | IC50
24 | Cc1c(Cl)cc(NC(=O)c2ccc(C(C)(C)C)cc2)cc1S(N)(=O)=O [Compound 24] | > 10 µM
25 | Cc1cc(C)c(S(N)(=O)=O)cc1NC(=O)c1ccc(C(C)(C)C)cc1 [Compound 25] | > 10 µM
26 | CC(C)(C)c1cccc(Nc2ccccc2C(=O)Nc2cccc(S(N)(=O)=O)c2)c1 [Compound 26] | > 10 µM
27 | NS(=O)(=O)c1cccc(NC(=O)c2ccccc2Nc2cccnc2)c1 [Compound 27] | 2 to 10 µM
28 | CCc1ccc(C(=O)Nc2cccc(S(N)(=O)=O)c2)cc1 [Compound 28] | > 10 µM
29 | Cc1cc(Cl)ccc1C(=O)Nc1cccc(S(N)(=O)=O)c1 [Compound 29] | > 10 µM
30 | NS(=O)(=O)c1cccc(NC(=O)c2ccccc2OC(F)(F)F)c1 [Compound 30] | > 10 µM
31 | NS(=O)(=O)c1cccc(NC(=O)c2ccc(Cl)cc2)c1 [Compound 31] | > 10 µM
32 | NS(=O)(=O)c1cccc(NC(=O)c2ccc3c(c2)OCO3)c1 [Compound 32] | > 10 µM
33 | CN(C)c1ccc(C(=O)Nc2cccc(S(N)(=O)=O)c2)cc1 [Compound 33] | > 10 µM
34 | NS(=O)(=O)c1cccc(NC(=O)c2ccc(OC(F)(F)F)cc2)c1 [Compound 34, N-(3-(Aminosulfonyl)phenyl)-4-(trifluoromethoxy)benzamide] | > 10 µM
35 | NS(=O)(=O)c1cccc(NC(=O)c2cccc(C(F)(F)F)c2)c1 [Compound 35] | > 10 µM
36 | CC(=O)c1cccc(Nc2ccccc2C(=O)Nc2cccc(S(N)(=O)=O)c2)c1 [Compound 36] | > 10 µM
37 | COC(=O)c1ccc(C(=O)Nc2cccc(S(N)(=O)=O)c2)cc1 [Compound 37] | > 10 µM
38 | Cc1ccc(C(=O)Nc2cccc(S(N)(=O)=O)c2)cc1 [Compound 38] | > 10 µM
39 | NS(=O)(=O)c1cccc(NC(=O)c2cccc(Br)c2)c1 [Compound 40] | > 10 µM
40 | Cc1ccc(S(N)(=O)=O)cc1NC(=O)c1ccc(Cl)cc1[N+](=O)[O-] [Compound 41] | > 10 µM
41 | COc1ccc(C(=O)Nc2cccc(S(N)(=O)=O)c2)cc1C(F)(F)F [Compound 42] | > 10 µM
42 | COc1cc(C)c(S(N)(=O)=O)cc1NC(=O)c1ccc(C(C)(C)C)cc1 [Compound 43] | > 10 µM
43 | CN(C)c1ccccc1C(=O)Nc1cccc(S(N)(=O)=O)c1 [Compound 44] | > 10 µM
44 | CC(C)COC(=O)N1CCN(c2ccccc2C(=O)Nc2cccc(S(N)(=O)=O)c2)CC1 [Compound 45] | > 10 µM
45 | Cc1c(Cl)cc(S(N)(=O)=O)cc1NC(=O)c1ccc(C(C)(C)C)cc1 [Compound 46] | > 10 µM
46 | NS(=O)(=O)c1cccc(NC(=O)c2ccccc2C(F)(F)F)c1 [Compound 47] | > 10 µM

Row | Structure (SMILES) | IC50
47 | CC(C)(C)c1ccc(C(=O)Nc2cccc(S(N)(=O)=O)c2)c(Oc2ccccc2Cl)c1 [Compound 48] | < 2 µM
48 | NS(=O)(=O)c1cccc(NC(=O)c2ccc(-c3ncns3)cc2)c1 [Compound 49] | > 10 µM
49 | COc1ccc(Oc2ccccc2C(=O)Nc2cccc(S(N)(=O)=O)c2)cc1 [Compound 50] | 2 to 10 µM
50 | NS(=O)(=O)c1cccc(NC(=O)c2ccccc2OCc2ccccc2)c1 [Compound 51] | > 10 µM
51 | N#Cc1ccc(C(=O)Nc2cccc(S(N)(=O)=O)c2)cc1 [Compound 52] | > 10 µM
52 | NS(=O)(=O)c1cccc(NC(=O)c2ccccc2Oc2ccccc2N2CCCCC2)c1 [Compound 53, 2-(2-(Piperidin-1-yl)phenoxy)-N-(3-(aminosulfonyl)phenyl)benzamide] | < 2 µM
53 | CC(=O)Nc1ccc(C(=O)Nc2cccc(S(N)(=O)=O)c2)cc1 [Compound 54] | > 10 µM
54 | Cc1ccccc1Oc1cc(C(C)(C)C)ccc1C(=O)Nc1cccc(S(N)(=O)=O)c1 [Compound 55] | < 2 µM
55 | CS(=O)(=O)c1ccc(C(=O)Nc2cccc(S(N)(=O)=O)c2)cc1 [Compound 56] | > 10 µM
56 | CCCCOc1ccc(C(=O)Nc2cccc(S(N)(=O)=O)c2)cc1 [Compound 57] | > 10 µM
57 | NS(=O)(=O)c1cccc(NC(=O)c2ccc(-c3ccccc3)cc2)c1 [Compound 58] | > 10 µM
58 | Cc1ccc(Oc2ccccc2C(=O)Nc2cccc(S(N)(=O)=O)c2)cc1 [Compound 59] | 2 to 10 µM
59 | NS(=O)(=O)c1cccc(NC(=O)c2ccc(SC(F)(F)F)cc2)c1 [Compound 60] | > 10 µM
60 | CC(C)(C)c1ccc(C(=O)Nc2cccc(S(N)(=O)=O)c2)c(Oc2cccnc2)c1 [Compound 61] | < 2 µM
61 | NS(=O)(=O)c1cccc(NC(=O)c2ccc3ccccc3c2)c1 [Compound 62] | > 10 µM
62 | NS(=O)(=O)c1cccc(NC(=O)c2ccccc2Oc2ccccc2)c1 [Compound 63] | 2 to 10 µM
63 | CCOc1ccc(C(=O)Nc2cccc(S(N)(=O)=O)c2)cc1 [Compound 64] | > 10 µM
64 | CCc1cc(C(=O)Nc2cccc(S(N)(=O)=O)c2)ccc1-c1ccccc1 [Compound 65] | > 10 µM
65 | CCCc1ccc(C(=O)Nc2cccc(S(N)(=O)=O)c2)cc1 [Compound 66] | > 10 µM
66 | CC(C)(C)c1ccc(C(=O)Nc2cccc(S(N)(=O)=O)c2)cc1 [Compound 67] | < 2 µM
67 | NS(=O)(=O)c1cccc(NC(=O)c2ccccc2NCc2ccccc2)c1 [Compound 68] | > 10 µM
